Test [1] relates to basolateral K+ channels. Briefly: K+ transport/conductance of basolateral membrane in apically permeabilized T84 monolayers. The following applies: for activation of currents at positive transepithelial voltages: basolaterally directed K+ gradient; for increases in Isc and G in absence of K+: Na+ as sole permeant cation, 135 mM gradient; for effect on K+ transport (Isc and G): forskolin 10 μM, 135 mM K+ gradient; for duration of agonist-induced changes in Isc: permeabilized T84 monolayers.

For test [2], the system named is basolateral K+ channels.
The next test has as its system T84 cells. Briefly: Electrogenic Cl- secretion (short circuit current) in intact T84 monolayers. The test is classed as cell-based, human. Further details: inhibition of Cl- secretory response to carbachol (Isc): dose or concentration left out as unconfirmed. The following applies: for inhibition of chloride secretion: T84 cells.
Test [3] has as its system apical membrane Cl- channels. Briefly: 125I efflux from T84 monolayers (apical Cl- channel activity).
For the next test, the system named is rabbit colonic mucosa. The test can be described thus: Ussing chamber studies using rabbit colonic mucosa. Details: species or system rabbit (New Zealand).
The next test relates to basolateral K+ channel. Briefly: 86Rb efflux from T84 monolayers (K+ channel activity). Format: cell-based, human.
The subject of test [4] is apical membrane Cl- channels. The test can be described thus: Cl- conductance of the apical plasma membrane in basolaterally permeabilized T84 monolayers. The test is classed as cell-based, human.
Test [5] deals with intestinal fluid secretion induced by cholera toxin. Further details: species or system mouse (Balb/C). The following applies: mouse, in vivo.
For test [6], the target named is T1, basolateral NaK2Cl cotransporters (Homo sapiens, UniProt P55011).
T1 sequence (P55011 1-1212): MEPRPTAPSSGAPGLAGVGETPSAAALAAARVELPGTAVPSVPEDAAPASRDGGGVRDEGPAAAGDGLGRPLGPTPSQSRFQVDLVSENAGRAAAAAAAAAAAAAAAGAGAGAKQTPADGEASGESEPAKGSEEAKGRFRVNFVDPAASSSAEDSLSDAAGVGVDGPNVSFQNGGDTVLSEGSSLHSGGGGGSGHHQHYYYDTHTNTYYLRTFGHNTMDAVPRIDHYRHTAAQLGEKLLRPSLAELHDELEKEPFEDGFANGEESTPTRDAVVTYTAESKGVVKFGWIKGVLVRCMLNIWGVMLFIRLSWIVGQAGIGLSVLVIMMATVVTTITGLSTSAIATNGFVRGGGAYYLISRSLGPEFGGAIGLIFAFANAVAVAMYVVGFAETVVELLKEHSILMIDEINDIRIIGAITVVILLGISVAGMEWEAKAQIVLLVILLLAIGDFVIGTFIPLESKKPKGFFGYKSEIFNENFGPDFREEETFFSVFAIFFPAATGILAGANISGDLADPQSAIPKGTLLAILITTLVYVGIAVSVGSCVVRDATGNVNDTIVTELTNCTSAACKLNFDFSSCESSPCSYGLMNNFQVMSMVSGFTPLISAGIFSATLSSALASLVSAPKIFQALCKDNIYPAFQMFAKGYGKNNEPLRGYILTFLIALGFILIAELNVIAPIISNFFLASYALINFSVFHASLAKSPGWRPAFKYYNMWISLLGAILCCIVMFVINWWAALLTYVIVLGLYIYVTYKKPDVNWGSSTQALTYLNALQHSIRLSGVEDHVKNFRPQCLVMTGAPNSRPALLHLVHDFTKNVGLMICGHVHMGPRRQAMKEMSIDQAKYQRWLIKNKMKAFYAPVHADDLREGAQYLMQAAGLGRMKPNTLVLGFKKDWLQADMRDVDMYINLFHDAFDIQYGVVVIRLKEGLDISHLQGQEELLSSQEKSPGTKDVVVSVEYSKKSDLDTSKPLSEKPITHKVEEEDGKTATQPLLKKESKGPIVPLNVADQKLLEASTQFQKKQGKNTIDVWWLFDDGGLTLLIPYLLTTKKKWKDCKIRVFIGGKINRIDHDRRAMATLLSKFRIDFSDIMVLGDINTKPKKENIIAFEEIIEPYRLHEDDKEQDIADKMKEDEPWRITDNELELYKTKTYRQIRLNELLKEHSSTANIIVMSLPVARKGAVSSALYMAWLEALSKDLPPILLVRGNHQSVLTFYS
The test can be described thus: 86Rb uptake in T84 monolayers (bumetanide-sensitive NaK2Cl cotransport). Format: cell-based. The procedure:
A group of control and CLT treated (33 μM, for 30 min) monolayers were treated with bumetanide (10 μM for 12 min).

[7] abbreviates: carbachol (so in the source) stimulated, […].
[8] abbreviates: clotrimazole 33 μM, final 30 min of 90 min preincubation.
Where [9] appears, read: T84 cells, vs cells not treated with clotrimazole.

Read-outs that look alike come from different tables or passages of the source.

`C/C=C(/C)C(=O)O[C@H]1C(C)=C2[C@H]([C@@H]1OC(=O)CCCCCCC)[C@@](C)(OC(C)=O)C[C@H](OC(=O)CCC)[C@@]1(O)[C@H]2OC(=O)[C@@]1(C)O` [thapsigargin]: the “activation of currents at positive transepithelial voltages” value in the test on basolateral K+ channels [1] is “activate macroscopic outwardly rectified (mucosal to serosal) currents”. Further, in the test with basolateral K+ channels [2], the “reversal potential (I/V relations)” value is given as -40 mV.
For the molecule charybdotoxin, the “effect on K+ transport induced by subsequent forskolin” value in the test on basolateral K+ channels [1] (charybdotoxin 100 nM) was “no detectable effect”. In addition, the “inhibition of carbachol-induced Ca++ IK” value in the test on basolateral K+ channels [1] (charybdotoxin 100 nM pretreatment) is 50%. Further, the “inhibition of Cl- secretory response to VIP (Isc)” value (“inhibition … to VIP (Isc)” below) in the test on T84 cells is recorded as “minimal affects”. In the test on T84 cells (setting [7]), the “inhibition of Cl- secretory response to carbachol (Isc)” value (“inhibition … to carbachol (Isc)” for short) is given as “strongly inhibited”.
For `Clc1ccccc1C(c1ccccc1)(c1ccccc1)n1ccnc1` [clotrimazole], in the test on basolateral K+ channels [1], the “inhibition of time course of K+ transport after carbachol” value was “significantly inhibited” and the “inhibition of time course of K+ transport after forskolin” value was “significantly inhibited”. For the same molecule, in test [3] (VIP-stimulated, clotrimazole-treated monolayers, n=2 in duplicate), the “rate constant for 125I efflux” value is 0.0637 % uptake/minute. Further, in test [3] (setting [8]), the “125I loading of the cells” value was “did not alter”. In addition, the “effect on time course of 125I efflux, VIP” value in test [3] (monolayers treated with VIP) is recorded as “little or no effect”. In addition, the “inhibition of time course of forskolin induced Isc” value in the test with rabbit colonic mucosa (clotrimazole 30 μM, forskolin 10 μM) is “inhibited strongly”. For the same molecule, in the test with basolateral K+ channel (setting [9]), the “inhibition of Ca++ stimulated 86Rb efflux” value is listed as “significantly inhibited” and the “inhibition of baseline 86Rb efflux” value is given as “significantly inhibited”. Further, the “reduction of rate constant for VIP-stimulated 86Rb efflux” value in the test on basolateral K+ channel (VIP 5 μM, clotrimazole 33 μM) is listed as 87%. Besides, the “86Rb loading of the cells” value in the test with basolateral K+ channel (setting [8]) is “did not alter”. Further, the “rate constant for VIP-stimulated 86Rb efflux” value with basolateral K+ channel (clotrimazole-treated (vs 0.0465 untreated), n=2 in triplicate) worked out at 0.0062 % uptake/minute. In the test with basolateral K+ channel (clotrimazole-treated (vs 0.048 untreated), n=2), the “rate constant for thapsigargin-stimulated 86Rb efflux” value worked out at 0.011 % uptake/minute. Further, the “inhibition of 86Rb efflux stimulated with thapsigargin” value in the test with basolateral K+ channel (compared with VIP-stimulated efflux) is recorded as “inhibited to a similar degree”. For the same molecule, in test [4] (symmetrical Cl- 142 mM), the “effect on forskolin-stimulated Cl- conductances” value was “no detectable effect” and the “effect on thapsigargin-stimulated Cl- conductances” value is “no detectable effect”. For the same molecule, in the test on T84 cells, the “apparent potency of inhibition, basolateral vs apical application” value is “greater when applied basolaterally than apically”; the “inhibition by basolateral application alone compared with both sides” value was “almost as effective as incubation on both sides”; the “inhibition … to VIP (Isc)” value is “inhibited”; the “inhibition … to carbachol (Isc)” value is listed as “inhibited”. Moreover, in the test with T84 cells, the “inhibition of Cl- secretory response to carbachol after pretreatment” value is “inhibited strongly”; the “inhibition of Cl- secretory response to ionomycin after pretreatment” value is on record as “inhibited strongly”; the “inhibition of Cl- secretory response to thapsigargin after pretreatment” value is “inhibited strongly”; the “inhibition of cAMP and Ca++ elicited Cl- secretion” value was “most potent inhibitor tested”. Also, in the test with T84 cells, the “inhibition of secretory response to 8Br-cAMP after pretreatment” value was “inhibited”, the “inhibition of secretory response to VIP after pretreatment” value is reported as “inhibited”, the “inhibition of secretory response to forskolin after pretreatment” value was “inhibited” and the “inhibition of synergistic response to VIP plus carbachol” value is recorded as “found to parallel the inhibition of secretion promoted by Ca^++ agonists alone”. In addition, the “reversibility of inhibition of Cl- secretion” value in the test with T84 cells was found to be 96±2%. Moreover, the IC50 in the test on T84 cells (Homo sapiens, T84, read-out: IC50, inhibition of secretory response to E. Coli heat-stabile toxin) came out at 15 µM. In addition, the “potentiation of Cl- secretory responses to either agonist” value in the test with T84 cells (low doses (10^-7 or less)) was 5-10%. In addition, in [5], the “effect on intestinal secretion in the absence of cholera toxin” value is listed as “no effect” and the “reduction of intestinal fluid secretion induced by cholera toxin” value was 86%. In addition, the inhibition at 33 µM in [6] (0.5 h, read-out: reduction of total amount of 86Rb uptake) worked out at 53.6 ± 5.8%. In [6] (clotrimazole 33 μM, bumetanide 10 μM), the “effect on fractional component of 86Rb uptake that was bumetanide-sensitive” value was “no effect”.
`OC(c1ccccc1)(c1ccccc1)c1ccccc1Cl` [2-chlorophenyl-bis-phenyl methanol]: the “inhibition of time course of K+ transport after carbachol” value with basolateral K+ channels [1] (carbachol 100 μM (Ca++ agonist)) is on record as “Nearly identical results”. Moreover, the “inhibition of time course of K+ transport after forskolin” value with basolateral K+ channels [1] (forskolin 10 μM (cAMP agonist)) is “Nearly identical results”. In addition, the “inhibition of chloride secretion” value in the test with T84 cells is listed as “effective at inhibiting chloride secretion”.
`[Ba+2].[Cl-].[Cl-]` [BaCl2]: the “effect on K+ transport induced by carbachol” value with basolateral K+ channels [1] (carbachol 100 μM after forskolin, BaCl2 3 mM) is reported as “no detectable effect”. Further, in the test with basolateral K+ channels [1] (forskolin 10 μM elicited, BaCl2 3 mM basolateral), the “inhibition of cAMP-sensitive IK” value is recorded as “greater than 70%”. In the test with T84 cells, the “inhibition … to VIP (Isc)” value is recorded as “strongly inhibited”. Moreover, in the test on T84 cells (setting [7]), the “inhibition … to carbachol (Isc)” value was “no apparent affect”.
As to `Clc1ccc(COC(Cn2ccnc2)c2ccc(Cl)cc2Cl)cc1` (stereo not shown) [econazole], in the test with T84 cells, the “inhibition of chloride secretion” value is listed as “effective at inhibiting chloride secretion”.
As to `C[C@@H]1[C@H](O)[C@@H](C)/C=C/C=C/C=C/C=C/C=C/C=C/C=C/[C@H](O[C@@H]2O[C@H](C)[C@@H](O)[C@H](N)[C@@H]2O)C[C@@H]2O[C@](O)(C[C@@H](O)C[C@@H](O)[C@H](O)CC[C@@H](O)C[C@@H](O)CC(=O)O[C@H]1C)C[C@H](O)[C@H]2C(=O)O` [amphotericin B], the “increase in conductance on initial permeabilization” value with basolateral K+ channels [1] (amphotericin B, apical) is reported as 49±19%.
As for `CC(=O)N1CCN(c2ccc(OCC3COC(Cn4ccnc4)(c4ccc(Cl)cc4Cl)O3)cc2)CC1` (stereo not shown) [ketoconazole], in the test on T84 cells, the “inhibition of chloride secretion” value is on record as “effective at inhibiting chloride secretion”.
As for `C=C[C@@]1(C)CC(=O)[C@]2(O)[C@@]3(C)[C@@H](O)CCC(C)(C)[C@@H]3[C@H](O)[C@H](OC(C)=O)[C@@]2(C)O1` [forskolin], in the test on basolateral K+ channels [1], the “increases in Isc and G in absence of K+” value is given as “not detectable”; the “activation of currents at positive transepithelial voltages” value is reported as “activate macroscopic outwardly rectified (mucosal to serosal) currents”; the “effect on K+ transport (Isc and G)” value is reported as “brisk increase in K+ transport”; the “duration of agonist-induced changes in Isc” value is given as “sustained”. The “reversal potential (I/V relations)” value in the test on basolateral K+ channels [2] is recorded as -40 mV. Further, the “effect on Cl- conductance over baseline” value in test [4] (forskolin 10 μM basolateral, no clotrimazole) is on record as “increased Cl- conductances significantly over baseline”.
With `C[N+](C)(C)CCOC(N)=O` [carbachol], in the test on basolateral K+ channels [1], the “increases in Isc and G in absence of K+” value is reported as “not detectable”; the “effect on K+ transport (Isc and G)” value is reported as “increased K+ currents”; the “duration of agonist-induced changes in Isc” value is reported as “short-lived”. The “time to return of IscK and GK to baseline” value with basolateral K+ channels [1] (after addition of carbachol) is reported as at most 5 min. The “carbachol-induced IscK, carbachol added after forskolin” value in the test on basolateral K+ channels [1] (after forskolin) came to 180.7±15.7 μA/cm^2. Moreover, the “carbachol-induced IscK, carbachol added alone” value in the test with basolateral K+ channels [1] (carbachol alone) is given as 111.7±7.4 μA/cm^2. Moreover, the “effect on Isc after forskolin” value in the test with rabbit colonic mucosa (carbachol 100 μM added after forskolin) is given as “no firther effect”.
In the case of `Clc1ccc(COC(Cn2ccnc2)c2ccc(Cl)cc2Cl)c(Cl)c1` (stereo not shown) [miconazole], the “inhibition of chloride secretion” value in the test on T84 cells is “effective at inhibiting chloride secretion”.

The IC50 is the concentration that inhibits the measured activity by half.

The values above are taken from patent publication US6291449A, “Use of 11-phenyl-dibenzazepine compounds to treat diarrhea or scours” (Children's Medical Center Corporation, priority 1998, dated 2001).
